Results taken from patent US20060216820A1, “Use of retinoic esters of hyaluronic acid for the differentiation of totipotent stem cells” (SINTOFARM S.P.A., priority 2003, published 2006).

Experiments:
[1] = system: human totipotent stem cells; conditions: totipotent stem cells (Xu et al. 2002); cited from earlier work
[2] = system: P19 cells; conditions: cited from earlier work
[3] = system: GTR1 stem cells; experiment: RT-PCR detection of cardiospecific transcripts (MHC, MLC) in GTR1 cells; format: cell-based, murine; conditions: 1 μM chelerithrine with retinoic esters of hyaluronic acid 0.75 mg/ml, 10 days; puromycin-selected cardiomyocytes
Text: Analysis of gene expression. Total RNA has been extracted from stem cells as described by Ventura et al. (Ventura C et al. J Biol. Chem. 1997; 272: 6685-6692). The levels of specific mRNAs have been analyzed by “RNase protection”, using [^32P]CTP radiolabeled cRNA probes (antisense mRNA) specific for each transcript of interest, according to a previously described protocol (Ventura C et al. J Biol. Chem. 1997; 272:6685-6692). Briefly, fragments corresponding to the main exons of GATA-4 (292 bp), Nkx-2.5 (414 bp) and prodynorphin (424 bp) genes have been inserted in the vector pCRII-TOPO (Invitrdgen). Transcription of the vector linearized With ApaI, BamHI, or XbaI respectively generated sense strand mRNA of prodynorphin, GATA-4, or Nkx-2.5. Transcription in presence of [^32P]CTP of the plasmid linearized with BamHI produced the antisense mRNA strand of prodynorphin and Nkx-2.5, while transcription of the vector linearized with XbaI generated the antisense mRNA strand of GATA-4. In some experiments the analysis of mRNA expression has been performed by means of RT-PCR, as described in (Ventura C, Maioli M. Circ Res. 2000:87:189-194).
GTR1 stem cells were used in these studies. […]

[4] = system: GTR1 stem cells; experiment: In vitro nuclear run-off transcription in nuclei from treated GTR1 cells; format: cell-based, murine; conditions: 1 μM chelerithrine with retinoic esters of hyaluronic acid 0.75 mg/ml, 10 days; puromycin-selected cardiomyocytes
Text: Gene transcription studies. Gene transcription rate has been analyzed in nuclei isolated by an approach of “in vitro nuclear run-off transcription”, previously described (Ventura C., J Biol Chem. 1997; 272:6685-6692.; Ventura C. et al. J Biol. Chem. 1998; 273:13383-13386.). Briefly, nuclei have been resuspended in buffer containing 50 mmol/L Tris/HCl, pH 8.0, 5 mmol/L MgCl2, 0.1 mmol/L EDTA, 40% glycerol, 0.1 mmol/L dithiothreitol, 0.5 mmol/L phenylmethylsulfonylfluoride, 1 μmol/L leupeptin, and 10 mmol/L β-mercaptoethanol. 100 μl of 2× reaction buffer (10 mmol/L Tris/HCl, pH 7.5, 5 mmol/L MgCl2, 0.3 mol/L KCl, 5 mmol/L dithiothreitol, 1 mmol/L of ATP, GTP, and CTP), and 5 μl of [α-^32P]UTP (3000 Ci/mmol) have been added to the nuclear suspension (90 μl). Samples were then incubated at room temperature for 15 min. The reaction has been stopped by digesting the DNA in presence of RNase-free DNase. The nuclear RNA has been isolated as described in Ventura C et al. J Biol Chem. 1997; 272:6685-6692. Approximately 5×10^6 cpm of ^32P labeled nuclear RNA were hybridized for 12 hours at 55° C. in presence of cold (not radioactive) probes of antisense mRNA of GATA-4, Nkx-2.5 or prodynorphin, generated, as described above, in absence of radiolabeled ribonucleotides. […]

| Compound | percentage of totipotent stem cells undergoing cardiomyocyte differentiation [1] | cells that differentiate in embryonic cardiomyocytes ([2]; P19 cells in presence of DMSO) | overall efficiency of cardiogenic effect ([2]; pluripotent murine cells in vitro) | effect of chelerithrine on the ester-induced expression of cardiospecific genes (MHC, MLC) [3] | effect of chelerithrine on the ester-induced expression/transcription of cardiogenic genes (GATA-4, Nkx-2.5, prodynorphin) [4] |
| --- | --- | --- | --- | --- | --- |
| C[S+](C)[O-] [DMSO, dimethylsulfoxide] | unable to produce a significant increase | 15-20% | rather low |  |  |
| COc1ccc2c(c[n+](C)c3c4cc5c(cc4ccc23)OCO5)c1OC [chelerithrine] |  |  |  | antagonized | antagonized |
